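Values below derive from 48-hour exposures of cells grown in 96-well plates, with endpoints linearly interpolated between the two concentrations bracketing the appropriate inhibition level. Definition used: TGI = concentration required for complete inhibition of growth.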

The subject of one experiment is HCC-2998 colon. Briefly: DTP human tumour cell line panel, 48 h.
As to `C=CCCCC12CCCc3cccc(c31)NC2=O` (centres undefined), the TGI (usually the concentration giving total growth inhibition) was determined as 30.8 µM.
For `Cc1oc2nc(N(C)C)n3nnnc3c2c1C`, the TGI was > 100 µM.
Same read-out and setting: the value for `C[C@@H]1C[C@H](O)[C@]2(O)O[C@@H]3C[C@@]4(C=O)[C@@H](CC=C5[C@@H]4CC[C@]4(C)[C@@H](C6=CC(=O)OC6)CC[C@]54O)C[C@H]3O[C@@H]2O1` was 0.285 µM; that for `Cc1nc(Cl)c(CBr)c(Cl)n1` was 11.5 µM; that for `N#CSCc1cccc(Nc2cc(=O)[nH]c(=O)[nH]2)c1` was > 100 µM.
On the same count and under the same terms, the figure for `COc1ccc2c(c1)C(=O)c1ccccc1C2` is > 100 µM; for `O=c1nc2c(c(-c3cccc(Cl)c3)[nH]1)COC/C2=C\c1cccc(Cl)c1` it is > 100 µM.
Turning to `CC(C)/C(Cl)=N\OC(=O)NNc1ccccc1`, the TGI is > 100 µM.
Same read-out and setting: the value for `Cc1nc2nnc(C)n2c2c1C(=O)Nc1ccccc1N2` was > 100 µM; that for `CN(O)C(=O)Cc1ccc(OCc2cccc(Cl)c2)cc1` was > 100 µM; that for `O=C(OCc1ccccc1)OOC(=O)OCc1ccccc1` was > 100 µM.
Still for that read-out and setting: the value for `CC1=CC(=O)N(n2c(C)n[nH]c2=O)C1=O` was > 100 µM; that for `CCN(CCCN(CC)C(=O)N[C@@H](Cc1ccccc1)C(=O)NC)C(=O)N[C@@H](Cc1ccccc1)C(=O)NC` was > 100 µM.
On to `C(=Nc1ccc(-c2nc3ccccc3s2)cc1)c1ccco1`, for which the TGI is > 100 µM.
Same read-out and setting: the value for `Cc1cc2cccc(Cl)c2nc1C(=O)c1ccccc1` was > 100 µM.
With `COC(=O)C1CC(C=[N+](C)C)=C(SC)N1` (centres undefined), the TGI is > 100 µM.
On the same count and under the same terms, the figure for `O=c1c2cc(I)ccc2[nH]c(=S)n1Cc1ccccc1` is > 100 µM.
For `COc1cccc(-c2nc(-c3cnccn3)n(Cc3ccccc3)n2)c1`, the TGI was > 100 µM.
With `CC(=O)Nc1ccc(Cl)c(Cl)c1`, the TGI is > 100 µM.
The same measure, in the same setting: the value for `N#Cc1c(OCCF)c2ccccc2n2c1nc1ccccc12` was > 100 µM.
On the same count and under the same terms, the figure for `CC(=O)/C(=C/n1c(=S)sc2ccccc21)C(=O)Nc1ccccc1C` is > 100 µM; for `O=C(CCc1ccc(O)cc1)c1c(O)cc(O)cc1OC1OC(CO)C(O)C(O)C1O` (centres undefined) it is > 100 µM; for `CC(C)=CC1C(C(=O)O)C1(C)C` (centres undefined) it is > 750 µM.
The same measure, in the same setting: the value for `CCOC(=O)C1CC(O)C(=O)N1C` (centres undefined) was > 100 µM; that for `c1ccc(N=c2snc(-c3ccccc3)s2)cc1` was > 100 µM.
Turning to `N#CC(C#N)=C1CCCS(=O)(=O)c2ccccc21`, the TGI was > 100 µM.

A further experiment has as its system HL-60(TB) leukemia. Briefly: DTP human tumour cell line panel, 48 h.
In the case of `C=CCCCC12CCCc3cccc(c31)NC2=O` (centres undefined), the TGI came to 48.7 µM.
For `Cc1oc2nc(N(C)C)n3nnnc3c2c1C`, the TGI is 63.6 µM.
Still for that read-out and setting: the figure for `C[C@@H]1C[C@H](O)[C@]2(O)O[C@@H]3C[C@@]4(C=O)[C@@H](CC=C5[C@@H]4CC[C@]4(C)[C@@H](C6=CC(=O)OC6)CC[C@]54O)C[C@H]3O[C@@H]2O1` is 0.062 µM; for `COc1ccc2c(c1)C(=O)c1ccccc1C2` it is > 100 µM.
In the case of `O=C1C(Cl)N(c2ccccc2)C1c1c[nH]c2ccccc12` (centres undefined), the TGI is > 100 µM.
Consider `Cc1nc2nnc(C)n2c2c1C(=O)Nc1ccccc1N2`, for which the concentration for total growth inhibition (TGI) is > 100 µM.
The same measure, in the same setting: the figure for `CN(O)C(=O)Cc1ccc(OCc2cccc(Cl)c2)cc1` is > 100 µM; for `O=C(OCc1ccccc1)OOC(=O)OCc1ccccc1` it is > 100 µM; for `O=c1c2cc(I)ccc2[nH]c(=S)n1Cc1ccccc1` it is 28.5 µM.
The same measure, in the same setting: the figure for `COc1cccc(-c2nc(-c3cnccn3)n(Cc3ccccc3)n2)c1` is > 100 µM; for `N#Cc1c(OCCF)c2ccccc2n2c1nc1ccccc12` it is > 100 µM.
In the case of `CC(=O)/C(=C/n1c(=S)sc2ccccc21)C(=O)Nc1ccccc1C`, the TGI is > 100 µM.
On the same count and under the same terms, the value for `CC(C)=CC1C(C(=O)O)C1(C)C` (centres undefined) was > 750 µM.
Still for that read-out and setting: the figure for `CCOC(=O)C1CC(O)C(=O)N1C` (centres undefined) is > 100 µM; for `c1ccc(N=c2snc(-c3ccccc3)s2)cc1` it is > 100 µM; for `OCc1ccccc1C1CSCSC1` it is > 100 µM.
Still for that read-out and setting: the figure for `N#CC(C#N)=C1CCCS(=O)(=O)c2ccccc21` is > 100 µM.

Another experiment relates to M14 melanoma. Briefly: DTP human tumour cell line panel, 48 h.
In turn, `C=CCCCC12CCCc3cccc(c31)NC2=O` (centres undefined) had a TGI of 31.1 µM.
On to `Cc1oc2nc(N(C)C)n3nnnc3c2c1C`, for which the TGI was > 100 µM.
Same read-out and setting: the value for `C[C@@H]1C[C@H](O)[C@]2(O)O[C@@H]3C[C@@]4(C=O)[C@@H](CC=C5[C@@H]4CC[C@]4(C)[C@@H](C6=CC(=O)OC6)CC[C@]54O)C[C@H]3O[C@@H]2O1` was 0.817 µM; that for `Cc1nc(Cl)c(CBr)c(Cl)n1` was 0.949 µM; that for `N#CSCc1cccc(Nc2cc(=O)[nH]c(=O)[nH]2)c1` was > 100 µM.
Still for that read-out and setting: the figure for `COc1ccc2c(c1)C(=O)c1ccccc1C2` is > 100 µM.
The same measure, in the same setting: the figure for `O=C1C(Cl)N(c2ccccc2)C1c1c[nH]c2ccccc12` (centres undefined) is > 100 µM; for `O=c1nc2c(c(-c3cccc(Cl)c3)[nH]1)COC/C2=C\c1cccc(Cl)c1` it is > 100 µM.
With `CC(C)/C(Cl)=N\OC(=O)NNc1ccccc1`, the TGI is > 56.3 µM.
Still for that read-out and setting: the figure for `Cc1nc2nnc(C)n2c2c1C(=O)Nc1ccccc1N2` is > 100 µM.
Still for that read-out and setting: the value for `CN(O)C(=O)Cc1ccc(OCc2cccc(Cl)c2)cc1` was > 100 µM.
With `O=C(OCc1ccccc1)OOC(=O)OCc1ccccc1`, the TGI was > 100 µM.
The same measure, in the same setting: the figure for `CC1=CC(=O)N(n2c(C)n[nH]c2=O)C1=O` is > 100 µM.
The same measure, in the same setting: the value for `CCN(CCCN(CC)C(=O)N[C@@H](Cc1ccccc1)C(=O)NC)C(=O)N[C@@H](Cc1ccccc1)C(=O)NC` was > 100 µM; that for `C(=Nc1ccc(-c2nc3ccccc3s2)cc1)c1ccco1` was > 100 µM.
The same measure, in the same setting: the figure for `Cc1cc2cccc(Cl)c2nc1C(=O)c1ccccc1` is > 100 µM.
For `COC(=O)C1CC(C=[N+](C)C)=C(SC)N1` (centres undefined), the TGI is > 100 µM.
Take `O=c1c2cc(I)ccc2[nH]c(=S)n1Cc1ccccc1`: the TGI was > 100 µM.
Same read-out and setting: the value for `COc1cccc(-c2nc(-c3cnccn3)n(Cc3ccccc3)n2)c1` was > 100 µM; that for `CC(=O)Nc1ccc(Cl)c(Cl)c1` was > 100 µM.
On the same count and under the same terms, the figure for `N#Cc1c(OCCF)c2ccccc2n2c1nc1ccccc12` is > 100 µM; for `CC(=O)/C(=C/n1c(=S)sc2ccccc21)C(=O)Nc1ccccc1C` it is > 100 µM.
On the same count and under the same terms, the value for `O=C(CCc1ccc(O)cc1)c1c(O)cc(O)cc1OC1OC(CO)C(O)C(O)C1O` (centres undefined) was > 100 µM; that for `CCOC(=O)C1CC(O)C(=O)N1C` (centres undefined) was > 100 µM; that for `COc1cccc(C2c3cc4c(cc3OC(N3CCCC3)C2C)OCO4)c1OC` (centres undefined) was 23.8 µM.
Take `c1ccc(N=c2snc(-c3ccccc3)s2)cc1`: the TGI is > 100 µM.

The record behind these values is PubChem BioAssay (NCI).
